pEC50: −log10 of the molar value. Active and inactive are the calls of the source. The rule behind the calls is not given here.
Biological target: Bcl-2-related protein A1 (Homo sapiens) (UniProt Q16548)
Assay: inhibitors of Bim binding to Bfl-1, dose response, biochemical, multiplexed, bead-based flow cytometry (AID 1320); for percent span (inhibition): test concentration not given here
Settings: Bim peptide-Bfl-1 binding, fluorescence; for percent span (inhibition): stronger effect = higher value

Chain of Bcl-2-related protein A1 (Homo sapiens) (Q16548 whole entry, looked up): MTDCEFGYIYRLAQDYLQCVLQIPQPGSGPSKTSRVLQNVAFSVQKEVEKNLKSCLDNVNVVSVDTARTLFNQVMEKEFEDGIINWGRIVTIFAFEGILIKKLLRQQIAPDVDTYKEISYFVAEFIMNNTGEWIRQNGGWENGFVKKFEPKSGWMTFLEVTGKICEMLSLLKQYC

Row | Compound | percent span (inhibition) | pEC50 | EC50
1 | COc1ccc(C(=O)Nc2ccc(C(=O)OCC(=O)c3cccc4ccccc34)cc2)cc1 | inactive | – | –
2 | CCN(CC)c1ccc(NC(=O)c2cccc(C)c2)cc1S(=O)(=O)Nc1ccccc1OC | inactive | – | –
3 | COC(=O)Cc1ccc(NC(=S)N2CCN(c3cccc(O)c3)CC2)cc1 | inactive | – | –
4 | COc1cc(/C=N/Nc2nn3cnnc3c3ccccc23)ccc1O | inactive | – | –
5 | CC1(C)Cc2c(ccc3ccccc23)/C(=C/C(=O)N2CCCCC2)N1 | inactive | – | –
6 | COC(=O)c1[nH]c2ccccc2c1NC(=O)c1ccccc1[N+](=O)[O-] | inactive | – | –
7 | CC(C)(C)OC(=O)N1CCN(C(=O)[C@H](Cc2ccc(O)cc2)n2cc(CCO)nn2)CC1 | inactive | – | –
8 | Cc1cc(NC(=O)CSc2nnc(-c3cccnc3)n2Cc2ccccc2)no1 | inactive | – | –
9 | COC(=O)c1ccc(C)c(NC(=O)CCNC(=O)c2ccc([N+](=O)[O-])cc2)c1 | inactive | – | –
10 | O=C(Cn1c(-c2ccccc2)noc1=O)N1CCC(Cc2ccccc2)CC1 | inactive | – | –
11 | CC1(C)CC(=O)C(C=NCCN2CCN(CCc3ccccc3)CC2)=C(O)C1 | inactive | – | –
12 | COc1ccc(CC(=O)Nc2ccc(-c3nc4cc(C)ccc4o3)c(O)c2)cc1OC | inactive | – | –
13 | COc1ccc(CC(=O)Nc2ccccc2Oc2ccccc2)cc1 | inactive | – | –
14 | Cc1ccc(C(=O)NNC(=O)c2ccc3ncccc3c2)cc1 | inactive | – | –
15 | CC(NC(=O)Nc1ccccn1)N1C(=O)C2C3C=CC(C3)C2C1=O (centres undefined) | inactive | – | –
16 | COc1ccc(C)cc1Nc1ccc(C(=O)O)cc1[N+](=O)[O-] | inactive | – | –
17 | CN(Cc1cccs1)C(=O)CCc1c[nH]c2ccccc12 | inactive | – | –
18 | CN(C)c1ccc(/C=C2/SC(=O)N(CCN=C3NS(=O)(=O)c4ccccc43)C2=O)cc1 | inactive | – | –
19 | C=CCn1c(SCC(=O)Nc2ccc3c(c2)OCO3)nnc1-c1cc(Br)ccc1O | inactive | – | –
20 | O=C(Cc1ccccc1)OCCNC(=O)c1cccnc1 | inactive | – | –
21 | Cc1c(NC2=C(Cl)C(=O)N(c3ccccc3Cl)C2=O)c(=O)n(-c2ccccc2)n1C | – | 5.22 | –
22 | COc1cc2nc(=S)n(CCCN3CCOCC3)c(N)c2cc1OC | inactive | – | –
23 | CNCc1ccccc1Sc1cc(O)ccc1O | inactive | – | –
24 | C=CCn1c(C)c(C(C)=O)c(N2CCOCC2)nc1=S | inactive | – | –
25 | CC(C)C(=O)N1CCN(c2ccc([N+](=O)[O-])cc2Cl)CC1 | inactive | – | –

Row | Compound | percent span (inhibition) | pEC50 | EC50
26 | COc1ccc(CN(C)CC(=O)NC(C)c2ccccc2)c(OC)c1 (centres undefined) | inactive | – | –
27 | CCn1c(C)nc2cc(C(=O)N/N=C/c3ccc(O)c(O)c3O)ccc21 | inactive | – | –
28 | O=C1c2ccccc2C(=O)c2cc(S(=O)(=O)Nc3ccccc3)ccc21 | inactive | – | –
29 | Cc1cc2nc(/C(C#N)=C/c3ccncc3)[nH]c2cc1C | inactive | – | –
30 | Cc1ccc(C2=N/C(=C/c3cccs3)C(=O)N2Nc2ccccc2)cc1 | inactive | – | –
31 | CC1CCN(C2(O)C(=O)Nc3ccc(Br)cc32)CC1 (centres undefined) | inactive | – | –
32 | CCOC(=O)c1ccc(NC(=O)CSCCC(=O)O)cc1 | inactive | – | –
33 | Cc1ccc(NC(=S)N2CCn3cccc3C2c2cccnc2)cc1 (centres undefined) | inactive | – | –
34 | Cc1cc(-c2csc(N)n2)c(C)n1CCC(C)C | inactive | – | –
35 | CCOC(=O)/C(=C\c1ccc(Cl)cc1)c1nc2sc(C)c(C)c2c(=O)[nH]1 | inactive | – | –
36 | Cc1ccc(C(=O)N(CCCN(C)C)c2nc3ccc(Cl)cc3s2)cc1C | inactive | – | –
37 | CC(C)COC(=O)/C(C#N)=C/c1cn(Cc2ccccc2)c2ccccc12 | inactive | – | –
38 | O=C(COc1ccccc1)N1CCN(c2ncnc3c2cnn3-c2ccccc2)CC1 | inactive | – | –
39 | Cc1cc(C)c[n+](-c2nc3ccccc3nc2C(=C=[N-])C#N)c1 | inactive | – | –
40 | CC(C)Cc1cc(-c2ccco2)c(C#N)c(N)n1 | inactive | – | –
41 | O=C(Nc1ccc(Cl)cn1)Nc1ccccc1F | inactive | – | –
42 | O=C(COC(=O)CCCN=C1NS(=O)(=O)c2ccccc21)NC(=O)NC1CCCC1 | inactive | – | –
43 | Cc1ccc(-n2c(CSc3nc(C)cc(C)n3)nnc2SCC(=O)NCc2ccco2)cc1 | inactive | – | –
44 | COc1ccc(NC(=O)C2=C(C)NC(=O)NC2c2cccc(OC)c2OC)c(OC)c1 (centres undefined) | inactive | – | –
45 | COc1ccc(C(=O)Nc2ccc(NC(=O)c3cccs3)cc2)cc1Cl | inactive | – | –
46 | COCCCNc1nc(=S)[nH]c2cc(OC)c(OC)cc12 | inactive | – | –
47 | C/C(=N\NC(=O)COc1ccc(C(C)(C)C)cc1)c1ccc2c(c1)OCCO2 | inactive | – | –
48 | COc1cc(/C=N/Nc2nc3c(c(=O)n(C)c(=O)n3C)n2Cc2ccccc2)ccc1OC(=O)c1ccco1 | inactive | – | –
49 | O=C1C(=O)c2ccc(-c3ccccc3)cc2-c2ccccc21 | inactive | – | –
50 | COc1c(C)cc(Br)cc1C(=O)Nc1ccc(S(N)(=O)=O)cc1 | inactive | – | –

Row | Compound | percent span (inhibition) | pEC50 | EC50
51 | N#CC(C#N)=C1C=CC=CN1/C(=C\c1ccco1)C(=O)c1ccccc1 | inactive | – | –
52 | O=C(N/N=C/c1ccncc1)c1cccc(NC(=O)c2ccccc2Cl)c1 | inactive | – | –
53 | CCN(CC)CCN(C(=O)c1ccc(N2C(=O)CCC2=O)cc1)c1nc2cc3c(cc2s1)OCCO3 | inactive | – | –
54 | COc1cc(NC(=S)NC(=O)c2cc(C)cc(C)c2)ccc1NC(=O)c1cccs1 | inactive | – | –
55 | Cc1cc(C)c2nc3nc(C)cc(C)c3c(N)c2c1 | inactive | – | –
56 | Cc1cc(-c2csc(N)n2)c(C)n1C | inactive | – | –
57 | CCOc1ncccc1C(=O)OC(C)C(=O)Nc1ccc(CC)cc1 (centres undefined) | inactive | – | –
58 | CC1Nc2ccccc2C(=O)N1NS(=O)(=O)c1ccccc1 (centres undefined) | inactive | – | –
59 | CC(=O)c1ccc2c(c1)C1C=CCC1C(c1ccncc1)N2 (centres undefined) | inactive | – | –
60 | O=C(NCCN1CCOCC1)c1cc(Cl)ccc1[N+](=O)[O-] | inactive | – | –
61 | Cc1cc(C)cc(-n2c(C)nc3cc(C(=O)O)ccc32)c1 | inactive | – | –
62 | COc1ccc(NC(=O)c2cccs2)cc1 | inactive | – | –
63 | Fc1ccc(/C=C2\CCCC3=C2NC(=S)NC3c2ccc(F)cc2)cc1 (centres undefined) | – | – | inactive
64 | Cc1cc(-c2csc(N)n2)c(C)n1CCc1ccccc1 | inactive | – | –
65 | O=C(CSc1ccc(-c2ccccc2)nn1)NCc1ccco1 | inactive | – | –
66 | O=C(C1=C(Nc2ccccc2)c2ccccc2S(=O)(=O)N1)c1ccccc1 | inactive | – | –
67 | CC1Cc2ccccc2N1C(=O)CSc1nnnn1-c1ccc2c(c1)OCCO2 (centres undefined) | inactive | – | –
68 | CN1C2C=C3C(C#N)=C(N)C(C#N)(C#N)[C@@H](c4ccsc4)[C@@H]3C1CC2 (some centres undefined) | inactive | – | –
69 | S=C(NCCc1ccccc1)NCCc1ccccc1 | inactive | – | –
70 | COC(=O)c1sc2nc[nH]c(=O)c2c1C | inactive | – | –
71 | Cc1sc2nc(C(C)C)nc(SCC(=O)N3c4ccccc4CC3C)c2c1C (centres undefined) | inactive | – | –
72 | COCCNC(=O)CN1CCC(NC(=O)Nc2ccccc2)CC1 | inactive | – | –
73 | COc1ccc(C2CN(C)CC2C(=O)c2ccc(F)cc2)cc1Cl (centres undefined) | inactive | – | –
74 | C=CCn1c(C)cc(-c2csc(NC)n2)c1C | inactive | – | –
75 | Cc1cc(C)nc(/N=C(\N)N2CCc3ccccc32)n1 | inactive | – | –

Row | Compound | percent span (inhibition) | pEC50 | EC50
76 | CN(CCCOc1ccccc1Br)Cc1ccccc1 | inactive | – | –
77 | Cc1ccc(N=C2NC(=O)/C(=C/C=C/c3ccco3)S2)cc1 | inactive | – | –
78 | CC1Cc2ccccc2N1C(=O)c1ccc(N2CCCC2)c([N+](=O)[O-])c1 (centres undefined) | inactive | – | –
79 | COc1ccc(Cc2c(O)nc(SC)n(C(C)=O)c2=O)cc1 | inactive | – | –
80 | C=CCSc1nc(N)c2c(C)c(C)sc2n1 | inactive | – | –
81 | Cn1cc(CN2C[C@]3(C)C[C@H]2CC(C)(C)C3)c(-c2ccc3c(c2)OCCO3)n1 | inactive | – | –
82 | COc1cc(/C=C2\S/C(=N/S(=O)(=O)c3ccccc3)NC2=O)c([N+](=O)[O-])cc1OC | inactive | – | –
83 | Cc1nnc2ccc(-c3cccc(NC(=O)c4ccco4)c3)nn12 | inactive | – | –
84 | CN(C)c1ccc(C(=O)/C=C/c2ccc(Br)cc2)cc1 | inactive | – | –
85 | CC(=O)NC(=O)Nc1sc(=S)n(C)c1C | inactive | – | –
86 | Cc1ccc2c(c1)c(C)c(C)n2CC(O)Cn1nc(C)c(Br)c1C (centres undefined) | inactive | – | –
87 | COc1cccc(/C=C2/SC(=O)N(C)C2=O)c1OCc1ccc(C(=O)O)cc1 | inactive | – | –
88 | COc1ccc(N=C2NC(=O)/C(=C\C=C\c3ccco3)S2)cc1 | inactive | – | –
89 | COc1ccccc1NC(=O)CSc1nnc(-c2ccco2)n1Cc1ccco1 | inactive | – | –
90 | CCc1cccc(NC(=O)COc2ccccc2)c1 | inactive | – | –
91 | Nc1ccc(Nc2nc(-c3ccncc3)cs2)cc1 | inactive | – | –
92 | CCOC(=O)c1c(NC(=O)c2ccccc2N(C)S(=O)(=O)c2ccccc2)sc2c1CCCC2 | inactive | – | –
93 | O=C(CCl)Nc1cccc2ncccc12 | inactive | – | –
94 | O=C(c1cc(=O)c2ccccc2o1)N1CCN(c2ccccc2F)CC1 | inactive | – | –
95 | Cc1ccc(-c2nnc(Cc3ccc(Cl)cc3)o2)cc1 | inactive | – | –
96 | BrC(=C\c1ccccc1)/C=N/N1CCN(c2ccccc2)CC1 | inactive | – | –
97 | c1ccc2c(N3CCOCC3)nc(N3CCOCC3)nc2c1 | inactive | – | –
98 | Cc1ccc(S(=O)(=O)NC(=O)COc2ccccc2C)cc1 | inactive | – | –
99 | CCN1CCN(c2cc(C)c3cc(NC(=S)N4CCN(c5ccc(F)cc5)CC4)ccc3n2)CC1 | inactive | – | –
